Assay results as given in the NIST ThermoML archive (doi:10.1021/acs.jced.9b00026).
± gives the expanded uncertainty stated by the source.

Test: wn = mass fraction of the nth substance listed
Conditions: for surface tension liquid-gas: Ring tensiometer; for mass density: 101 kPa, Liquid, Vibrating tube method

## O=C(O)[C@@H]1CCCN1 [L-proline] + O
298 K, w1 = 0.01996
  surface tension liquid-gas: 71.56 ± 0.91 mN/m
298 K, w1 = 0.03996
  surface tension liquid-gas: 71.56 ± 0.91 mN/m
298 K, w1 = 0.05995
  surface tension liquid-gas: 71.55 ± 0.91 mN/m
298 K, w1 = 0.07996
  surface tension liquid-gas: 71.5 ± 0.91 mN/m
298 K, w1 = 0.09995
  surface tension liquid-gas: 71.45 ± 0.91 mN/m
298 K, w1 = 0.02
  mass density: 1002.6 ± 0.6 kg/m3
308 K, w1 = 0.01996
  surface tension liquid-gas: 70.14 ± 0.89 mN/m
308 K, w1 = 0.03996
  surface tension liquid-gas: 70.13 ± 0.89 mN/m
308 K, w1 = 0.05995
  surface tension liquid-gas: 70.12 ± 0.89 mN/m
308 K, w1 = 0.07996
  surface tension liquid-gas: 70.05 ± 0.89 mN/m
308 K, w1 = 0.09995
  surface tension liquid-gas: 69.95 ± 0.89 mN/m
318 K, w1 = 0.01996
  surface tension liquid-gas: 68.51 ± 0.88 mN/m
318 K, w1 = 0.03996
  surface tension liquid-gas: 68.51 ± 0.88 mN/m
318 K, w1 = 0.05995
  surface tension liquid-gas: 68.46 ± 0.88 mN/m
318 K, w1 = 0.07996
  surface tension liquid-gas: 68.44 ± 0.88 mN/m
318 K, w1 = 0.09995
  surface tension liquid-gas: 68.4 ± 0.88 mN/m
328 K, w1 = 0.01996
  surface tension liquid-gas: 66.8 ± 0.86 mN/m
328 K, w1 = 0.03996
  surface tension liquid-gas: 66.79 ± 0.86 mN/m
328 K, w1 = 0.05995
  surface tension liquid-gas: 66.75 ± 0.86 mN/m
328 K, w1 = 0.07996
  surface tension liquid-gas: 66.67 ± 0.85 mN/m
328 K, w1 = 0.09995
  surface tension liquid-gas: 66.46 ± 0.85 mN/m

## C[C@H](O)C(=O)O [(S)-2-hydroxypropanoic acid] + O
298 K, w1 = 0.002
  surface tension liquid-gas: 70.66 ± 0.9 mN/m
298 K, w1 = 0.004
  surface tension liquid-gas: 69.69 ± 0.89 mN/m
298 K, w1 = 0.006
  surface tension liquid-gas: 68.73 ± 0.88 mN/m
298 K, w1 = 0.008
  surface tension liquid-gas: 67.69 ± 0.87 mN/m
298 K, w1 = 0.01
  mass density: 999.5 ± 0.6 kg/m3
308 K, w1 = 0.002
  surface tension liquid-gas: 69.32 ± 0.88 mN/m
308 K, w1 = 0.004
  surface tension liquid-gas: 68.36 ± 0.87 mN/m
308 K, w1 = 0.006
  surface tension liquid-gas: 67.63 ± 0.86 mN/m
308 K, w1 = 0.008
  surface tension liquid-gas: 67.06 ± 0.86 mN/m
318 K, w1 = 0.002
  surface tension liquid-gas: 68.04 ± 0.87 mN/m
318 K, w1 = 0.004
  surface tension liquid-gas: 67.36 ± 0.86 mN/m
318 K, w1 = 0.006
  surface tension liquid-gas: 66.46 ± 0.85 mN/m
318 K, w1 = 0.008
  surface tension liquid-gas: 65.96 ± 0.85 mN/m
328 K, w1 = 0.002
  surface tension liquid-gas: 67.07 ± 0.86 mN/m
328 K, w1 = 0.004
  surface tension liquid-gas: 66.17 ± 0.85 mN/m
328 K, w1 = 0.006
  surface tension liquid-gas: 65.34 ± 0.84 mN/m
328 K, w1 = 0.008
  surface tension liquid-gas: 64.92 ± 0.83 mN/m

## N[C@@H](CO)C(=O)O [L-serine] + O
298 K, w1 = 0.00504
  surface tension liquid-gas: 71.53 ± 0.91 mN/m
298 K, w1 = 0.01
  surface tension liquid-gas: 71.64 ± 0.91 mN/m
298 K, w1 = 0.02001
  surface tension liquid-gas: 71.7 ± 0.91 mN/m
298 K, w1 = 0.03
  surface tension liquid-gas: 71.85 ± 0.91 mN/m
298 K, w1 = 0.03999
  surface tension liquid-gas: 71.98 ± 0.92 mN/m
298 K, w1 = 0.05
  surface tension liquid-gas: 72.12 ± 0.92 mN/m
298 K, w1 = 0.005
  mass density: 999.1 ± 0.6 kg/m3
308 K, w1 = 0.00504
  surface tension liquid-gas: 69.85 ± 0.89 mN/m
308 K, w1 = 0.01
  surface tension liquid-gas: 69.98 ± 0.89 mN/m
308 K, w1 = 0.02001
  surface tension liquid-gas: 70.15 ± 0.89 mN/m
308 K, w1 = 0.03
  surface tension liquid-gas: 70.31 ± 0.9 mN/m
308 K, w1 = 0.03999
  surface tension liquid-gas: 70.44 ± 0.9 mN/m
308 K, w1 = 0.05
  surface tension liquid-gas: 70.56 ± 0.9 mN/m
318 K, w1 = 0.00504
  surface tension liquid-gas: 68.58 ± 0.88 mN/m
318 K, w1 = 0.01
  surface tension liquid-gas: 68.6 ± 0.88 mN/m
318 K, w1 = 0.02001
  surface tension liquid-gas: 68.84 ± 0.88 mN/m
318 K, w1 = 0.03
  surface tension liquid-gas: 68.87 ± 0.88 mN/m
318 K, w1 = 0.03999
  surface tension liquid-gas: 69.09 ± 0.88 mN/m
318 K, w1 = 0.05
  surface tension liquid-gas: 69.23 ± 0.88 mN/m
328 K, w1 = 0.00504
  surface tension liquid-gas: 66.76 ± 0.85 mN/m
328 K, w1 = 0.01
  surface tension liquid-gas: 66.84 ± 0.86 mN/m
328 K, w1 = 0.02001
  surface tension liquid-gas: 67.01 ± 0.86 mN/m
328 K, w1 = 0.03
  surface tension liquid-gas: 67.19 ± 0.86 mN/m
328 K, w1 = 0.03999
  surface tension liquid-gas: 67.28 ± 0.86 mN/m
328 K, w1 = 0.05
  surface tension liquid-gas: 67.5 ± 0.86 mN/m

## O [water] + O=C(O)CC(O)C(=O)O
298 K, w2 = 0
  surface tension liquid-gas: 71.52 ± 0.91 mN/m
308 K, w2 = 0
  surface tension liquid-gas: 69.73 ± 0.89 mN/m
318 K, w2 = 0
  surface tension liquid-gas: 68.3 ± 0.87 mN/m
328 K, w2 = 0
  surface tension liquid-gas: 66.81 ± 0.85 mN/m

## O [water] + CSCC[C@H](N)C(=O)O
298 K, w2 = 0
  surface tension liquid-gas: 71.52 ± 0.91 mN/m
308 K, w2 = 0
  surface tension liquid-gas: 69.94 ± 0.89 mN/m
318 K, w2 = 0
  surface tension liquid-gas: 68.54 ± 0.88 mN/m
328 K, w2 = 0
  surface tension liquid-gas: 66.78 ± 0.85 mN/m

## O [water] + NC(=O)CC[C@H](N)C(=O)O
298 K, w2 = 0
  surface tension liquid-gas: 71.06 ± 0.9 mN/m
308 K, w2 = 0
  surface tension liquid-gas: 69.1 ± 0.88 mN/m
318 K, w2 = 0
  surface tension liquid-gas: 68.31 ± 0.87 mN/m
328 K, w2 = 0
  surface tension liquid-gas: 66.41 ± 0.85 mN/m

## CC(C)[C@H](N)C(=O)O [L-valine] + O
298 K, w1 = 0.005
  surface tension liquid-gas: 70.53 ± 0.9 mN/m
  mass density: 998.1 ± 0.6 kg/m3
298 K, w1 = 0.01
  surface tension liquid-gas: 70.5 ± 0.9 mN/m
298 K, w1 = 0.02
  surface tension liquid-gas: 69.48 ± 0.89 mN/m
298 K, w1 = 0.03
  surface tension liquid-gas: 68.4 ± 0.87 mN/m
298 K, w1 = 0.04
  surface tension liquid-gas: 67.12 ± 0.86 mN/m
308 K, w1 = 0.005
  surface tension liquid-gas: 69.19 ± 0.88 mN/m
308 K, w1 = 0.01
  surface tension liquid-gas: 68.93 ± 0.88 mN/m
308 K, w1 = 0.02
  surface tension liquid-gas: 68.17 ± 0.87 mN/m
308 K, w1 = 0.03
  surface tension liquid-gas: 67.08 ± 0.86 mN/m
308 K, w1 = 0.04
  surface tension liquid-gas: 66.41 ± 0.85 mN/m
318 K, w1 = 0.005
  surface tension liquid-gas: 67.61 ± 0.86 mN/m
318 K, w1 = 0.01
  surface tension liquid-gas: 67.61 ± 0.86 mN/m
318 K, w1 = 0.02
  surface tension liquid-gas: 66.54 ± 0.85 mN/m
318 K, w1 = 0.03
  surface tension liquid-gas: 65.36 ± 0.84 mN/m
318 K, w1 = 0.04
  surface tension liquid-gas: 64.53 ± 0.83 mN/m
328 K, w1 = 0.005
  surface tension liquid-gas: 66.3 ± 0.85 mN/m
328 K, w1 = 0.01
  surface tension liquid-gas: 66.02 ± 0.85 mN/m
328 K, w1 = 0.02
  surface tension liquid-gas: 65.14 ± 0.84 mN/m
328 K, w1 = 0.03
  surface tension liquid-gas: 63.84 ± 0.82 mN/m
328 K, w1 = 0.04
  surface tension liquid-gas: 63.26 ± 0.81 mN/m

## CCO [ethanol] + O
298 K, w1 = 0.05
  surface tension liquid-gas: 55.14 ± 0.72 mN/m
298 K, w1 = 0.1
  surface tension liquid-gas: 47.34 ± 0.63 mN/m
298 K, w1 = 0.15
  surface tension liquid-gas: 41.96 ± 0.57 mN/m
298 K, w1 = 0.2
  surface tension liquid-gas: 38.2 ± 0.52 mN/m
313 K, w1 = 0.05
  surface tension liquid-gas: 53.13 ± 0.7 mN/m
313 K, w1 = 0.1
  surface tension liquid-gas: 45.92 ± 0.61 mN/m
313 K, w1 = 0.15
  surface tension liquid-gas: 40.41 ± 0.55 mN/m
313 K, w1 = 0.2
  surface tension liquid-gas: 36.71 ± 0.51 mN/m
